# Measured values taken from patent US20070049593A1 (priority 2004, published 2007).
# Biological target: T1, HCV polymerase (Hepatitis C virus genotype 1b, UniProt P26663)
# T1 construct: a region encoding NS5B (J Virol 1991 March, 65(3), 1105-13, 544 amino acids after deletion of 47 amino acids on the C-terminal); 6xHis (C); made in house; host or cells: Escherichia coli
# Assay: biochemical
# Parameters: species or system HCV BK strain
# Method in brief: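 Recombinant HCV BK-strain NS5B (C-terminal 47 aa deleted, His6-tagged, E. coli), 0.5 μg/ml, run with 5 μg/ml in vitro-transcribed RNA template (polyU/3′X), ATP/GTP/CTP 50 μM, UTP 2 μM plus [3H]UTP, pH 7.5, 25° C, 90 min. TCA-precipitated RNA counted by scintillation; IC50 from activity with vs without compound.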
# T1 sequence (P26663 2420-2963): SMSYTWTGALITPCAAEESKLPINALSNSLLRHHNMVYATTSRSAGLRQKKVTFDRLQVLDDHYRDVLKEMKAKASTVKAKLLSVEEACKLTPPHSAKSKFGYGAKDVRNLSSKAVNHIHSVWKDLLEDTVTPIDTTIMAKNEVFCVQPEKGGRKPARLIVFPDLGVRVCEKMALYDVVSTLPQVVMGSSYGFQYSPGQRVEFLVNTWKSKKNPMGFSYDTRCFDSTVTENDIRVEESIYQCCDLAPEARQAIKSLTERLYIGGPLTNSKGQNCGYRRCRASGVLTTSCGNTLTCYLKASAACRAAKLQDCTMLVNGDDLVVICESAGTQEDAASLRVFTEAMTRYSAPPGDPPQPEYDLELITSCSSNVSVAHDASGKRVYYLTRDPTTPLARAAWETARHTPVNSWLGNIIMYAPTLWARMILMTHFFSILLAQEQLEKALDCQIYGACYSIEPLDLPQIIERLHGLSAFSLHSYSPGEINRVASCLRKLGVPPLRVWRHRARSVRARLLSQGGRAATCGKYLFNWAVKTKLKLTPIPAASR
row,Compound,IC50
1,"CCOC(=O)c1ccc2c(c1)nc(C(C)(C)NC(=O)c1ccc3c(C4CCCCC4)c4n(c3c1)CCOc1ccccc1-4)n2C [Example 2-329, ethyl 2-{1-[(12-cyclohexyl-6,7-dihydro-5-oxa-7a-azadibenzo[a,e]azulene-9-carbonyl)amino]-1-methylethyl}-1-methyl-1H-benzimidazole-5-carboxylate]",< 100 nM
2,"Cn1c(C(C)(C)NC(=O)c2ccc3c(C4CCCCC4)c4n(c3c2)CCOc2ccccc2-4)nc2cc(C(=O)O)ccc21 [Example 2-330, 2-{1-[(12-cyclohexyl-6,7-dihydro-5-oxa-7a-azadibenzo[a,e]azulene-9-carbonyl)amino]-1-methylethyl}-1-methyl-1H-benzimidazole-5-carboxylic acid]",< 100 nM
3,"COC(=O)c1cc2nc(C(C)(C)NC(=O)c3ccc4c(C5CCCCC5)c5n(c4c3)CCOc3cc(OC)ccc3-5)[nH]c2cc1OC [Example 2-331, methyl 2-{1-[(12-cyclohexyl-3-methoxy-6,7-dihydro-5-oxa-7a-azadibenzo[a,e]azulene-9-carbonyl)amino]-1-methylethyl}-6-methoxy-1H-benzimidazole-5-carboxylate]",< 100 nM
4,"COc1ccc2c(c1)OCCn1c-2c(C2CCCCC2)c2ccc(C(=O)NC(C)(C)c3nc4ccc(C(=O)O)cc4[nH]3)cc21 [Example 2-332, 2-{1-[(12-cyclohexyl-3-methoxy-6,7-dihydro-5-oxa-7a-azadibenzo[a,e]azulene-9-carbonyl)amino]-1-methylethyl}-3H-benzimidazole-5-carboxylic acid]",< 100 nM
5,"CCN(CCCCOC)C(=O)C(C)(C)NC(=O)c1ccc2c(C3CCCCC3)c3n(c2c1)CCOc1ccccc1-3 [Example 2-333, N-{1-[N-ethyl-N-(4-methoxybutyl)carbamoyl]-1-methylethyl}-12-cyclohexyl-6,7-dihydro-5-oxa-7a-azadibenzo[a,e]azulene-9-carboxamide]",< 100 nM
6,"CC(=O)NC1CCN(C(=O)C(C)(C)NC(=O)c2ccc3c(C4CCCCC4)c4n(c3c2)CCOc2ccccc2-4)CC1 [Example 2-334, N-[2-(4-acetylaminopiperidin-1-yl)-1,1-dimethyl-2-oxoethyl]-12-cyclohexyl-6,7-dihydro-5-oxa-7a-azadibenzo[a,e]azulene-9-carboxamide]",< 100 nM
7,"CC(C)(NC(=O)c1ccc2c(C3CCCCC3)c3n(c2c1)CCOc1ccccc1-3)C(=O)N1CCC(NS(C)(=O)=O)CC1 [Example 2-335, N-[2-(4-methanesulfonylaminopiperidin-1-yl)-1,1-dimethyl-2-oxoethyl]-12-cyclohexyl-6,7-dihydro-5-oxa-7a-azadibenzo[a,e]azulene-9-carboxamide]",< 100 nM
8,"COC(=O)c1ccc2nc(C(C)(C)NC(=O)c3ccc4c(C5CCCCC5)c5n(c4c3)CCOc3ccccc3-5)n(C)c2c1 [Example 2-336, methyl 2-{1-[(12-cyclohexyl-6,7-dihydro-5-oxa-7a-azadibenzo[a,e]azulene-9-carbonyl)amino]-1-methylethyl}-3-methyl-3H-benzimidazole-5-carboxylate]",< 100 nM
9,"Cn1c(C(C)(C)NC(=O)c2ccc3c(C4CCCCC4)c4n(c3c2)CCOc2ccccc2-4)nc2ccc(C(=O)O)cc21 [Example 2-337, 2-{1-[(12-cyclohexyl-6,7-dihydro-5-oxa-7a-azadibenzo[a,e]azulene-9-carbonyl)amino]-1-methylethyl}-3-methyl-3H-benzimidazole-5-carboxylic acid]",< 100 nM
10,"COC(=O)[C@H](Cc1ccc(NC(C)=O)cc1)NC(=O)c1ccc2c(C3CCCCC3)c3n(c2c1)CCOc1cc(OC)ccc1-3 [Example 2-338, methyl (S)-3-(4-acetylaminophenyl)-2-[(12-cyclohexyl-3-methoxy-6,7-dihydro-5-oxa-7a-azadibenzo[a,e]azulene-9-carbonyl)amino]propionate]",< 100 nM
11,"COC(=O)[C@H](Cc1ccc(NS(C)(=O)=O)cc1)NC(=O)c1ccc2c(C3CCCCC3)c3n(c2c1)CCOc1cc(OC)ccc1-3 [Example 2-339, methyl (S)-2-[(12-cyclohexyl-3-methoxy-6,7-dihydro-5-oxa-7a-azadibenzo[a,e]azulene-9-carbonyl)amino]-3-(4-methanesulfonylaminophenyl)propionate]",< 100 nM
12,"COc1ccc2c(c1)OCCn1c-2c(C2CCCCC2)c2ccc(C(=O)N[C@@H](Cc3ccc(NC(C)=O)cc3)C(=O)O)cc21 [Example 2-340, (S)-3-(4-acetylaminophenyl)-2-[(12-cyclohexyl-3-methoxy-6,7-dihydro-5-oxa-7a-azadibenzo[a,e]azulene-9-carbonyl)amino]propionic acid]",< 100 nM
13,"COc1ccc2c(c1)OCCn1c-2c(C2CCCCC2)c2ccc(C(=O)N[C@@H](Cc3ccc(NS(C)(=O)=O)cc3)C(=O)O)cc21 [Example 2-341, (S)-2-[(12-cyclohexyl-3-methoxy-6,7-dihydro-5-oxa-7a-azadibenzo[a,e]azulene-9-carbonyl)amino]-3-(4-methanesulfonylaminophenyl)propionic acid]",< 100 nM
14,COCCCN(CCN1CCCCC1)c1cccc2c1OCCn1c-2c(C2CCCCC2)c2ccc(C(=O)O)cc21 [Example 2-342],< 100 nM
15,"CN(C)Cc1ccccc1-c1cccc2c1OCCn1c-2c(C2CCCCC2)c2ccc(C(=O)O)cc21 [Example 2-343, 12-cyclohexyl-4-(2-dimethylaminomethylphenyl)-6,7-dihydro-5-oxa-7a-azadibenzo[a,e]azulene-9-carboxylic acid]",< 100 nM
16,"O=C(O)c1ccc2c(C3CCCCC3)c3n(c2c1)CCOc1c-3cccc1N1CCCCC1=O [Example 2-344, 12-cyclohexyl-4-(2-oxopiperidin-1-yl)-6,7-dihydro-5-oxa-7a-azadibenzo[a,e]azulene-9-carboxylic acid]",< 100 nM
17,"O=C(O)c1ccc2c(C3CCCCC3)c3n(c2c1)CCOc1c-3cccc1N1CCCCC1 [Example 2-345, 12-cyclohexyl-4-(piperidin-1-yl)-6,7-dihydro-5-oxa-7a-azadibenzo[a,e]azulene-9-carboxylic acid]",< 100 nM
18,"COc1ccc2c(c1)OCCn1c-2c(C2CCCCC2)c2ccc(C(=O)NC(C)(C)c3nc4ccc(C(=O)N(C)C)cc4[nH]3)cc21 [Example 2-346, N-[1-(6-dimethylcarbamoyl-1H-benzimidazol-2-yl)-1-methylethyl]-12-cyclohexyl-3-methoxy-6,7-dihydro-5-oxa-7a-azadibenzo[a,e]azulene-9-carboxamide]",< 100 nM
19,"COc1ccc2c(c1)OCCn1c-2c(C2CCCCC2)c2ccc(C(=O)NC(C)(C)c3nc4cc(C(=O)O)c(OC)cc4[nH]3)cc21 [Example 2-347, 2-{1-[(12-cyclohexyl-3-methoxy-6,7-dihydro-5-oxa-7a-azadibenzo[a,e]azulene-9-carbonyl)amino]-1-methylethyl}-6-methoxy-1H-benzimidazole-5-carboxylic acid]",< 100 nM
20,"COc1ccc2c(c1)OCCn1c-2c(C2CCCCC2)c2ccc(C(=O)NC(C)(C)c3nc4ccccc4o3)cc21 [Example 2-348, N-[1-(benzoxazol-2-yl)-1-methylethyl]-12-cyclohexyl-3-methoxy-6,7-dihydro-5-oxa-7a-azadibenzo[a,e]azulene-9-carboxamide]",< 100 nM
21,"COC(=O)c1ccc(NC(=O)C(C)(C)NC(=O)c2ccc3c(C4CCCCC4)c4n(c3c2)CCOc2cc(OC)ccc2-4)cc1 [Example 2-349, methyl 4-{2-[(12-cyclohexyl-3-methoxy-6,7-dihydro-5-oxa-7a-azadibenzo[a,e]azulene-9-carbonyl)amino]-2-methylpropionylamino}benzoate]",< 100 nM
22,"COc1ccc2c(c1)OCCn1c-2c(C2CCCCC2)c2ccc(C(=O)NC(C)(C)C(=O)Nc3ccc(C(=O)O)cc3)cc21 [Example 2-350, 4-{2-[(12-cyclohexyl-3-methoxy-6,7-dihydro-5-oxa-7a-azadibenzo[a,e]azulene-9-carbonyl)amino]-2-methylpropionylamino}benzoic acid]",< 100 nM
23,"CC(C)(NC(=O)c1ccc2c(C3CCCCC3)c3n(c2c1)CCOc1ccccc1-3)c1nc2ccccc2n1CCO [Example 2-351, N-{1-[1-(2-hydroxyethyl)-1H-benzimidazol-2-yl]-1-methylethyl}-12-cyclohexyl-6,7-dihydro-5-oxa-7a-azadibenzo[a,e]azulene-9-carboxamide]",< 100 nM
24,"COC(=O)[C@H](Cc1cccc(C(F)(F)F)c1)NC(=O)c1ccc2c(C3CCCCC3)c3n(c2c1)CCOc1cc(OC)ccc1-3 [Example 2-352, methyl (S)-2-[(12-cyclohexyl-3-methoxy-6,7-dihydro-5-oxa-7a-azadibenzo[a,e]azulene-9-carbonyl)amino]-3-(3-trifluoromethylphenyl)propionate]",< 100 nM
25,"COC(=O)C(Cc1cccc(O)c1)NC(=O)c1ccc2c(C3CCCCC3)c3n(c2c1)CCOc1cc(OC)ccc1-3 (stereo not drawn) [Example 2-353, methyl 2-[(12-cyclohexyl-3-methoxy-6,7-dihydro-5-oxa-7a-azadibenzo[a,e]azulene-9-carbonyl)amino]-3-(3-hydroxyphenyl)propionate]",< 100 nM
26,"COc1ccc2c(c1)OCCn1c-2c(C2CCCCC2)c2ccc(C(=O)N[C@@H](Cc3cccc(C(F)(F)F)c3)C(=O)O)cc21 [Example 2-354, (S)-2-[(12-cyclohexyl-3-methoxy-6,7-dihydro-5-oxa-7a-azadibenzo[a,e]azulene-9-carbonyl)amino]-3-(3-trifluoromethylphenyl)propionic acid]",< 100 nM
27,"COc1ccc2c(c1)OCCn1c-2c(C2CCCCC2)c2ccc(C(=O)NC(Cc3cccc(O)c3)C(=O)O)cc21 (stereo not drawn) [Example 2-355, 2-[(12-cyclohexyl-3-methoxy-6,7-dihydro-5-oxa-7a-azadibenzo[a,e]azulene-9-carbonyl)amino]-3-(3-hydroxyphenyl)propionic acid]",< 100 nM
